# According to paper PMC4979471 (Cell Death Discovery, 2015):
# Like-named read-outs stand apart in the source and are kept apart here.
# Tests used:
# Test in all cases: Kinase selectivity, P33-radiolabeled assay
# Format in all cases: biochemical
# Details in all cases: 10 μM ATP
# CK1a1 = biological target: T1, CK1a1 (Homo sapiens, UniProt P48729)
# T1 construct: purchased Reaction Biology Corp
# Method in brief: (§1)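 Activity relative to DMSO controls (%) was measured for compound at 10 μM. Assays ran at 10 μM ATP, in duplicate.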
# FMS = biological target: T2, FMS (Homo sapiens, UniProt P07333)
# T2 construct: purchased Reaction Biology Corp
# T2 sequence (P07333 20-972): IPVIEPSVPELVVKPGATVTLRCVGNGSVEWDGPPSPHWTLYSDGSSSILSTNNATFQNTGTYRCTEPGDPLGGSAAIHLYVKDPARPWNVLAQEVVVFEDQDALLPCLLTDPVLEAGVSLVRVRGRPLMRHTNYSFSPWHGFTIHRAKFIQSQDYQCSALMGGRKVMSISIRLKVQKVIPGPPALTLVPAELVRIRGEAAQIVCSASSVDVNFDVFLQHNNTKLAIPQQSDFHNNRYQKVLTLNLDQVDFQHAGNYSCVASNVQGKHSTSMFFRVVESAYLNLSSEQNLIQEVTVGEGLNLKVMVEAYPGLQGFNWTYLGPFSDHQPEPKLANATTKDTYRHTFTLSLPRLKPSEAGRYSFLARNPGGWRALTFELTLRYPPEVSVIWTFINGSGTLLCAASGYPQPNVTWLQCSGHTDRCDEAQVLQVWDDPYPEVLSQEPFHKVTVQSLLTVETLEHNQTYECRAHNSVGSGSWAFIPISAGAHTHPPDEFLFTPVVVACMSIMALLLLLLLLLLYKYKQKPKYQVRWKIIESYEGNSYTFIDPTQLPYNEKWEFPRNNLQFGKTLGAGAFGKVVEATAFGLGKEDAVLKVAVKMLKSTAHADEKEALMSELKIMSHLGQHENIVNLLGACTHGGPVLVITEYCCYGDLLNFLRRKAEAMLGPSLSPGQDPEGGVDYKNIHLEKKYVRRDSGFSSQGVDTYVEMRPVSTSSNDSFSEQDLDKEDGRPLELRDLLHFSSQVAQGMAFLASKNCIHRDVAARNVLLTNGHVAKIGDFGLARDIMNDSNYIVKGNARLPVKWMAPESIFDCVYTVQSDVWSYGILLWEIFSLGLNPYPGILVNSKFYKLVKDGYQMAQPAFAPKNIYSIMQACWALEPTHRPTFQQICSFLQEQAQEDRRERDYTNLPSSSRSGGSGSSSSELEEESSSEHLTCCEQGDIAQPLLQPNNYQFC
# Method in brief: as §1
# NEK1 = biological target: T3, NEK1 (Homo sapiens, UniProt Q96PY6)
# T3 construct: purchased Reaction Biology Corp
# T3 sequence (Q96PY6 1-1258): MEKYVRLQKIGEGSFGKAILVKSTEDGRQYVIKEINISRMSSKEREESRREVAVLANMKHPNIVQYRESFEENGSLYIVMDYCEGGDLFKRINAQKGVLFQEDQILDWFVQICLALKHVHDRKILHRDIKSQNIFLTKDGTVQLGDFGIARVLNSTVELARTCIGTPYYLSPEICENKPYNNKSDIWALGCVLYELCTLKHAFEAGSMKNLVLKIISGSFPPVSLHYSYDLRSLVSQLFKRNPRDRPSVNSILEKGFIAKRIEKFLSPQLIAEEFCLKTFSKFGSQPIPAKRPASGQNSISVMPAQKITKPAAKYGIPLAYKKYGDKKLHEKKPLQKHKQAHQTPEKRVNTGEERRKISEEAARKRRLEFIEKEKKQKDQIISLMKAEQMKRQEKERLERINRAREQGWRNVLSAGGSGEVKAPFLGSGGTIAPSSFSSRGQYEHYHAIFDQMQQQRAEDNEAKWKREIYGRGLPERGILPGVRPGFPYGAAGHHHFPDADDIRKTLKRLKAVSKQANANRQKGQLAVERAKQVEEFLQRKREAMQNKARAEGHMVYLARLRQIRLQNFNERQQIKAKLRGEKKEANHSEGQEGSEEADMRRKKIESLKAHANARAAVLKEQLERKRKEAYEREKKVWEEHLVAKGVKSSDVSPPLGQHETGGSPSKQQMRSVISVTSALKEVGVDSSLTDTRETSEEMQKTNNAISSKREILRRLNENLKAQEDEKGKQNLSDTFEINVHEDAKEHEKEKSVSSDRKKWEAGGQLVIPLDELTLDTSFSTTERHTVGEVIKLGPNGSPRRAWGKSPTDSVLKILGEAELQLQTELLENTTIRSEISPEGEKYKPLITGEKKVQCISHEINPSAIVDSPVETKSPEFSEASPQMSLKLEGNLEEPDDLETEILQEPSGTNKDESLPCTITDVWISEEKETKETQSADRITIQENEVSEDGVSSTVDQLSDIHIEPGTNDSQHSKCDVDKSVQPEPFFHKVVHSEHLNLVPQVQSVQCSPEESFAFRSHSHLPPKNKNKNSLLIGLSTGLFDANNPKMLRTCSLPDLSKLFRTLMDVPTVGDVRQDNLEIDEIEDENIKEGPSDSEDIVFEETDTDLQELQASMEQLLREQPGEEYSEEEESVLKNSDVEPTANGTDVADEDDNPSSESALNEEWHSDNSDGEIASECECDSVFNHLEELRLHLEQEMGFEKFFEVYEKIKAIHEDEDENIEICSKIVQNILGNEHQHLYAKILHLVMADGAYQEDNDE
# Method in brief: as §1
# P38g = biological target: T4, P38g (Homo sapiens, UniProt P53778)
# T4 construct: purchased Reaction Biology Corp
# T4 sequence (P53778 1-367): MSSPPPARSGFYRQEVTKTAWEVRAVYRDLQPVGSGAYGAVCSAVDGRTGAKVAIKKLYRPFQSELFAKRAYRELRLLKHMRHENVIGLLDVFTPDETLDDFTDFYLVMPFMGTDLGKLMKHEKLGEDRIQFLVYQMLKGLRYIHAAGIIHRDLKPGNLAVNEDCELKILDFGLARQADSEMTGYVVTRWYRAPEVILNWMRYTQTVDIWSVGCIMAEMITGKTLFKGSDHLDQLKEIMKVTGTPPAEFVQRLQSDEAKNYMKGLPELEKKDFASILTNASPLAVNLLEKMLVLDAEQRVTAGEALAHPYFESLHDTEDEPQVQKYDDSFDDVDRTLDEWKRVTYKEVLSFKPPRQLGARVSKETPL
# Method in brief: as §1
# PKG2/PRKG2 = biological target: T5, PKG2/PRKG2 (Homo sapiens, UniProt Q13237)
# T5 construct: purchased Reaction Biology Corp
# T5 sequence (Q13237 1-762): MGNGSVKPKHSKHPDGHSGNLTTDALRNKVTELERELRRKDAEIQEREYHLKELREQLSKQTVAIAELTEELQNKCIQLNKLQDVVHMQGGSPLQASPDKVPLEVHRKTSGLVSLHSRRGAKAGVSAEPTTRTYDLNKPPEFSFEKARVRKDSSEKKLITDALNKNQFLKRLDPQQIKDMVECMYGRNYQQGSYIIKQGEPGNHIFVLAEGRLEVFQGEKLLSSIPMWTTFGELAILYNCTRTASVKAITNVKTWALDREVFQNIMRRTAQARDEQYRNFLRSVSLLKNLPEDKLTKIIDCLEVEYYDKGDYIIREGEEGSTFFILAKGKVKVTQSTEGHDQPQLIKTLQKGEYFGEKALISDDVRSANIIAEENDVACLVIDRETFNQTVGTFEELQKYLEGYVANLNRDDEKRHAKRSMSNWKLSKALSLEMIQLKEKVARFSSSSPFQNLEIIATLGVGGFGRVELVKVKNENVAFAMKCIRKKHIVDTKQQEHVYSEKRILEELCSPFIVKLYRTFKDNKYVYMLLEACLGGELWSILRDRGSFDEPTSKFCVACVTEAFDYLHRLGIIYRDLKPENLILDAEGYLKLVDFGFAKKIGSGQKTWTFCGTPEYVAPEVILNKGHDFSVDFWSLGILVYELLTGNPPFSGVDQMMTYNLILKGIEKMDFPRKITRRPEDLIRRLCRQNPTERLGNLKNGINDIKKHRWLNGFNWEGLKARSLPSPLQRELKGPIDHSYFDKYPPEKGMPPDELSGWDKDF
# Method in brief: as §1
# ROCK2 = biological target: T6, ROCK2 (Homo sapiens, UniProt O75116)
# T6 construct: purchased Reaction Biology Corp
# T6 sequence (O75116 whole entry): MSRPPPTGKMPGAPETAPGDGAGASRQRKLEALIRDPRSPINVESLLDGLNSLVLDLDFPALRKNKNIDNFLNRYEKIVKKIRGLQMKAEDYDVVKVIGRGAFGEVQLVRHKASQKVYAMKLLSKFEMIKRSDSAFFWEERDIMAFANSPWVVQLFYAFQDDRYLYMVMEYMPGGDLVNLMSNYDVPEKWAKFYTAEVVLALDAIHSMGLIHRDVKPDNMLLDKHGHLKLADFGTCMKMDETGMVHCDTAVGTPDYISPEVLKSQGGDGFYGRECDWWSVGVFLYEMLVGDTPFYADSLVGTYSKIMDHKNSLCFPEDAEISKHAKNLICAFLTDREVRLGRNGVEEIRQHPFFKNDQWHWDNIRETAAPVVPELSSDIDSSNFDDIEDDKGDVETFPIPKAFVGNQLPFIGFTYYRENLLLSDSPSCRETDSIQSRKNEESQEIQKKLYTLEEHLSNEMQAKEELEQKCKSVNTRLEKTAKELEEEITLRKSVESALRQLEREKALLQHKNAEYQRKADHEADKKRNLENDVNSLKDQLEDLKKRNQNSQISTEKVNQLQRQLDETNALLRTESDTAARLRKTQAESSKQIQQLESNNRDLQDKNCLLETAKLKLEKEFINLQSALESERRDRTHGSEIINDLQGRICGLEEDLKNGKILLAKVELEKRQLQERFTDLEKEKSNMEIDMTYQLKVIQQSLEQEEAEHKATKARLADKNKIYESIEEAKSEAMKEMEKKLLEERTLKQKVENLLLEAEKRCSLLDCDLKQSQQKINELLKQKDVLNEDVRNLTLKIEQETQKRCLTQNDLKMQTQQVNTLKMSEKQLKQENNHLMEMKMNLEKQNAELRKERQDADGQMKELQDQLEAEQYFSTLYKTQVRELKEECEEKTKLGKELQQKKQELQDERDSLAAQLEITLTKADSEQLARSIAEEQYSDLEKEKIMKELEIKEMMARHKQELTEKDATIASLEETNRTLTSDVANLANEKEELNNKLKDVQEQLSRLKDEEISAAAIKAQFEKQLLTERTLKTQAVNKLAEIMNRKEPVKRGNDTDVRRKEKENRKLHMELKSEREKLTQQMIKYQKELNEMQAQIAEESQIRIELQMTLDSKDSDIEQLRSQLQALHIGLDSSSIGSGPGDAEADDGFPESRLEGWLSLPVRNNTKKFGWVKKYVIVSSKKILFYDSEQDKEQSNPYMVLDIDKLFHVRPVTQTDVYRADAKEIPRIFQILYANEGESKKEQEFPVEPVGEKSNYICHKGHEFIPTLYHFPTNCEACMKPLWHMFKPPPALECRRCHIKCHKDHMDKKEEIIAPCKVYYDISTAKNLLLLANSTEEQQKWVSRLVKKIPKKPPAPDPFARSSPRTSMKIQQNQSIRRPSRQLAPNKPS
# Method in brief: as §1
# RON/MST1R = biological target: T7, RON/MST1R (Homo sapiens, UniProt Q04912)
# T7 construct: purchased Reaction Biology Corp
# T7 sequence (Q04912 25-1400): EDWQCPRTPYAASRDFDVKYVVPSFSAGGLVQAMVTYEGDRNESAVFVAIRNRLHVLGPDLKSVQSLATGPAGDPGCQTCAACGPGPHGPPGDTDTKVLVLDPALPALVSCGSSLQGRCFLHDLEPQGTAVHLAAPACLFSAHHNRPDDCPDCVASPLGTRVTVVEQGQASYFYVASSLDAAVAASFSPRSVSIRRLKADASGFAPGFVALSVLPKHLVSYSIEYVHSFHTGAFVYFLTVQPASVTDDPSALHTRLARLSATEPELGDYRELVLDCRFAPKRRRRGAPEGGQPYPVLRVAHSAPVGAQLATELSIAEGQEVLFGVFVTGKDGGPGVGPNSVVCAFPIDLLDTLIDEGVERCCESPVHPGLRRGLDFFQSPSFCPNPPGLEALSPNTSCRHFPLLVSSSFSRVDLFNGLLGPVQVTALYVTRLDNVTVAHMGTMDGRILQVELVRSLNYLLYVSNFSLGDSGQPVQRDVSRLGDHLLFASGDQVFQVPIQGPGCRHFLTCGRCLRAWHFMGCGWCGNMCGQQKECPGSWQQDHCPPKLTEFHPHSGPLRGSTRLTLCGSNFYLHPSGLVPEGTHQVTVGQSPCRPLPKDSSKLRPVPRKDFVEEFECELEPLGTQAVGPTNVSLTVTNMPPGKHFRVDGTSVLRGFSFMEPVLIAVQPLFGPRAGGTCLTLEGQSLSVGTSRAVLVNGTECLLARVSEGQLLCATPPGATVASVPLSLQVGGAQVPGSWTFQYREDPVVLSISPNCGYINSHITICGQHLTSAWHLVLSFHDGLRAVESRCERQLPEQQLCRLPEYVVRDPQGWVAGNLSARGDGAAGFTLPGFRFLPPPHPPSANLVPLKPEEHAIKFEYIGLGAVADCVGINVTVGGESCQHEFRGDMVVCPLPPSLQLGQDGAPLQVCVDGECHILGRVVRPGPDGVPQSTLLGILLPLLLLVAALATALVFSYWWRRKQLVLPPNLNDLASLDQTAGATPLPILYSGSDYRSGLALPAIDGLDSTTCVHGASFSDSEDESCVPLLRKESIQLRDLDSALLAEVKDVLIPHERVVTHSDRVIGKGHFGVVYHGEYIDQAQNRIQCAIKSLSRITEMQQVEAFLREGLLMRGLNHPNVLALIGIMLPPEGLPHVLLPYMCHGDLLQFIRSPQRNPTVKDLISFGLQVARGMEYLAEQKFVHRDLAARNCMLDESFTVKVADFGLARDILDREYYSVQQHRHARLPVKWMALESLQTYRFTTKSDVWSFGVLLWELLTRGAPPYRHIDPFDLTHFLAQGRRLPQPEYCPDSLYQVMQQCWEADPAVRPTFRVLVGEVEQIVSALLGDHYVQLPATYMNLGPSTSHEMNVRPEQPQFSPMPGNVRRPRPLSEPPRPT
# Method in brief: as §1
# [1] = read-out: % Enzyme Activity (relative to DMSO controls) AVG
# [2] = read-out: % Enzyme Activity (relative to DMSO controls) Data 1
# [3] = read-out: % Enzyme Activity (relative to DMSO controls) Data 2
# T1 sequence (P48729 whole entry): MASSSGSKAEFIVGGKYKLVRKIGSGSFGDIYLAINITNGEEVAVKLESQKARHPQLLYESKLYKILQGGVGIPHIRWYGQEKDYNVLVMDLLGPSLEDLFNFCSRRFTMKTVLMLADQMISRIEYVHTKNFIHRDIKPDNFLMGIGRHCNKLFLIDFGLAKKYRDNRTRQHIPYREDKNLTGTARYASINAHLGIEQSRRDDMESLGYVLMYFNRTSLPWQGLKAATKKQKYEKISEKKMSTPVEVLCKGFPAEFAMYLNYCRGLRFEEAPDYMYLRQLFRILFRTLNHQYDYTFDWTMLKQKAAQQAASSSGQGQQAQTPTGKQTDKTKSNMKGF
structure (smiles),measurement,setting,value
CC(C)(C)C(=O)N1N=CC[C@H]1c1ccccc1 [GSK′963],remaining activity at 10 µM,CK1a1; [1],103%
same,remaining activity at 10 µM,CK1a1; [2],102%
same,remaining activity at 10 µM,CK1a1; [3],103%
same,remaining activity at 10 µM,FMS; [1],95%
same,remaining activity at 10 µM,FMS; [2],97.2%
same,remaining activity at 10 µM,FMS; [3],92.8%
same,remaining activity at 10 µM,NEK1; [1],97.5%
same,remaining activity at 10 µM,NEK1; [2],97.1%
same,remaining activity at 10 µM,NEK1; [3],98%
same,remaining activity at 10 µM,P38g; [1],101%
same,remaining activity at 10 µM,P38g; [2],103%
same,remaining activity at 10 µM,P38g; [3],98.7%
same,remaining activity at 10 µM,PKG2/PRKG2; [1],105%
same,remaining activity at 10 µM,PKG2/PRKG2; [2],98.2%
same,remaining activity at 10 µM,PKG2/PRKG2; [3],112%
same,remaining activity at 10 µM,ROCK2; [1],98%
same,remaining activity at 10 µM,ROCK2; [2],99%
same,remaining activity at 10 µM,ROCK2; [3],97.1%
same,remaining activity at 10 µM,RON/MST1R; [1],104%
same,remaining activity at 10 µM,RON/MST1R; [2],106%
same,remaining activity at 10 µM,RON/MST1R; [3],102%
